The record followed here is patent publication US11827628B2, “Compositions and methods for inhibition of the JAK pathway” (Rigel Pharmaceuticals, Inc., priority 2005, dated 2023).

The test system of one assay is up-regulation of ICAM-1 (CD54) by IFNγ in U937 human monocytic cells. In words: U937 IFNγ ICAM1 FACS Assay. The class given is cell-based. Conditions: U937 cells stimulated with IFNγ; ICAM-1 expression by FACS; read-out: IC50, Example 44. Put shortly: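 Readout was the geometric-mean APC anti-ICAM-1 signal by FACS on live U937 monocytic cells, with % live cells also recorded. Cells were exposed to compounds (8 points, 3-fold dilutions, duplicates) for 30 min at 37 °C before 18–24 h of IFNγ stimulation. EC50 values were computed from the dose curve.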
On the technique in general: In flow cytometry, cells or beads pass a laser one at a time.
What is called IC50 is the midpoint of a concentration-inhibition curve. On to `Cc1cc(Nc2nc(Nc3ccc(S(N)(=O)=O)cc3)ncc2F)ccc1OC(C)C#N` (racemic) [Compound I-60, Racemic N2-(4-Aminosulfonyl)phenyl-N4-[4-(1-cyano)ethoxy-3-methyl]phenyl-5-fluoro-2,4-pyrimidinediamine], for which the concentration for half-maximal inhibition (IC50) turned out to be 848 nM.

In the case of `Cc1cc(Nc2nc(Nc3cccc(S(N)(=O)=O)c3)ncc2F)ccc1OC(C)C#N` (racemic) [Compound I-61, Racemic N2-(3-Aminosulfonyl)phenyl-N4-[4-(1-cyano)ethoxy-3-methyl]phenyl-5-fluoro-2,4-pyrimidinediamine], the concentration for half-maximal inhibition (IC50) stood at 427 nM.

As to `Cc1cc(Nc2nc(Nc3ccc(C)c(S(N)(=O)=O)c3)ncc2F)ccc1OC(C)C#N` (racemic) [Compound I-62, Racemic N2-(3-Aminosulfonyl-4-methyl)phenyl-N4-[4-(1-cyano)ethoxy-3-methyl]phenyl-5-fluoro-2,4-pyrimidinediamine], the half-inhibitory concentration (IC50) was 735 nM.

Take `Cc1cc(Nc2nc(Nc3ccc(S(N)(=O)=O)cc3)ncc2F)cc(C)c1OC(C)C#N` (racemic) [Compound I-63, Racemic N2-(4-Aminosulfonyl)phenyl-N4-[4-(1-cyano)ethoxy-3,5-dimethyl]phenyl-5-fluoro-2,4-pyrimidinediamine]: the concentration for half-maximal inhibition (IC50) came out at 691 nM.

Turning to `COc1cc(Nc2ncc(F)c(Nc3ccc(OC(C)C#N)c(C)c3)n2)ccc1S(N)(=O)=O` (racemic) [Compound I-64, Racemic N2-(4-Aminosulfonyl-3-methoxy)phenyl-N4-[4-(1-cyano)ethoxy-3-methyl]phenyl-5-fluoro-2,4-pyrimidinediamine], the IC50 is 1150 nM.

As to `CC(C#N)Oc1ccc(Nc2nc(Nc3cccc(S(N)(=O)=O)c3)ncc2F)cc1` (racemic) [Compound I-65, Racemic N2-(3-Aminosulfonyl)phenyl-N4-[4-(1-cyano)ethoxy]phenyl-5-fluoro-2,4-pyrimidinediamine], the IC50 is 316 nM.

With `CC(C#N)Oc1ccc(Nc2nc(Nc3ccc(S(N)(=O)=O)cc3)ncc2F)cc1` (racemic) [Compound I-66, Racemic N2-(4-Aminosulfonyl)phenyl-N4-[4-(1-cyano)ethoxy]phenyl-5-fluoro-2,4-pyrimidinediamine], the IC50 was 689 nM.

As for `Cc1ccc(Nc2ncc(F)c(Nc3ccc(OC(C)C#N)cc3)n2)cc1S(N)(=O)=O` (racemic) [Compound I-67, Racemic N2-(3-Aminosulfonyl-4-methyl)phenyl-N4-[4-(1-cyano)ethoxy]phenyl-5-fluoro-2,4-pyrimidinediamine], the IC50 stood at 239 nM.

In the case of `CC(C#N)Oc1ccc(Nc2nc(Nc3ccc(F)c(S(N)(=O)=O)c3)ncc2F)cc1` (racemic) [Compound I-68, Racemic N2-(3-Aminosulfonyl-4-fluoro)phenyl-N4-[4-(1-cyano)ethoxy]phenyl-5-fluoro-2,4-pyrimidinediamine], the IC50 stood at 913 nM.

As for `COc1cc(Nc2ncc(F)c(Nc3ccc(OC(C)C#N)cc3)n2)ccc1S(N)(=O)=O` (racemic) [Compound I-70, Racemic N2-(4-Aminosulfonyl-3-methoxy)phenyl-N4-[4-(1-cyano)ethoxy]phenyl-5-fluoro-2,4-pyrimidinediamine], the half-inhibitory concentration (IC50) came to 384 nM.

As for `Cc1cc(Nc2nc(Nc3cccc(S(N)(=O)=O)c3)ncc2F)cc(C)c1OC(C)C#N` (racemic) [Compound I-71, Racemic N2-(3-Aminosulfonyl)phenyl-N4-[4-(1-cyano)ethoxy-3,5-dimethyl]phenyl-5-fluoro-2,4-pyrimidinediamine], the IC50 is 328 nM.

As for `Cc1ccc(Nc2ncc(F)c(Nc3cc(C)c(OC(C)C#N)c(C)c3)n2)cc1S(N)(=O)=O` (racemic) [Compound I-72, Racemic N2-(3-Aminosulfonyl-4-methyl)phenyl-N4-[4-(1-cyano)ethoxy-3,5-dimethyl]phenyl-5-fluoro-2,4-pyrimidinediamine], the IC50 was found to be 574 nM.

For `Cc1cc(Nc2nc(Nc3ccc(F)c(S(N)(=O)=O)c3)ncc2F)ccc1OCC#N` [Compound I-34, N2-(3-Aminosulfonyl-4-fluoro)phenyl-N4-(4-cyanomethoxy-3-methyl)phenyl-5-fluoro-2,4-pyrimidinediamine], the IC50 turned out to be 1050 nM.

Take `Cc1cc(Nc2nc(Nc3ccc(F)c(S(N)(=O)=O)c3)ncc2F)cc(C)c1OCC#N` [Compound I-35, N2-(3-Aminosulfonyl-4-fluoro)phenyl-N4-(4-cyanomethoxy-3,5-dimethyl)phenyl-5-fluoro-2,4-pyrimidinediamine]: the IC50 was found to be 1820 nM.

Consider `Cc1ccc(Nc2ncc(F)c(Nc3ccc(OCC#N)cc3)n2)cc1S(=O)(=O)NC(=O)C(C)C` [Compound I-37, N4-(4-Cyanomethyleneoxy)phenyl-5-fluoro-N2-(3-isobutyrylaminosulfonyl-4-methyl)phenyl-2,4-pyrimidinediamine], for which the IC50 turned out to be 5740 nM.

Consider `Cc1ccc(Nc2ncc(F)c(Nc3ccc(OCC#N)c(Cl)c3)n2)cc1S(N)(=O)=O` [Compound I-43, N2-(3-Aminosulfonyl-4-methylphenyl)-N4-(3-chloro-4-cyanomethoxypheny)-5-fluoro-2,4-pyrimidinediamine], for which the half-inhibitory concentration (IC50) was 771 nM.

Turning to `Cc1cnc(Nc2ccc(S(N)(=O)=O)cc2)nc1Nc1ccc(OCC#N)cc1` [Compound I-57, N2-(4-Aminosulfonylphenyl)-N4-(4-cyanomethoxyphenyl-5)-methyl-2,4-pyrimidinediamine], the IC50 stood at 140 nM.

Take `Cc1ccc(Nc2ncc(F)c(Nc3ccc(OC(C)(C)C#N)cc3)n2)cc1S(N)(=O)=O` [Compound I-73, N2-(3-Aminosulfonyl-4-methyl)phenyl-N4-[4-(1-cyano-1-methyl)ethoxy]phenyl-5-fluoro-2,4-pyrimidinediamine]: the IC50 was 1060 nM.

Turning to `CC(C)(C#N)Oc1ccc(Nc2nc(Nc3ccc(F)c(S(N)(=O)=O)c3)ncc2F)cc1` [Compound I-74, N2-(3-Aminosulfonyl-4-fluoro)phenyl-N4-[4-(1-cyano-1-methyl)ethoxy]phenyl-5-fluoro-2,4-pyrimidinediamine], the half-maximal inhibitory concentration (IC50) was 1760 nM.

For the compound `CC(C)(C#N)Oc1ccc(Nc2nc(Nc3ccc(S(N)(=O)=O)cc3)ncc2F)cc1` [Compound I-75, N2-(4-Aminosulfonyl)phenyl-N4-[4-(1-cyano-1-methyl)ethoxy]phenyl-5-fluoro-2,4-pyrimidinediamine], the IC50 is 3100 nM.

For `CC(C)(C#N)Oc1ccc(Nc2nc(Nc3cccc(S(N)(=O)=O)c3)ncc2F)cc1` [Compound I-76, N2-(3-Aminosulfonyl)phenyl-N4-[4-(1-cyano-1-methyl)ethoxy]phenyl-5-fluoro-2,4-pyrimidinediamine], the IC50 came to 1120 nM.

Turning to `Cc1ccc(Nc2ncc(F)c(Nc3cccc(OCC(N)=O)c3)n2)cc1S(N)(=O)=O` [Compound I-90, N4-(3-Aminocarbonylmethoxy)phenyl-N2-(3-aminosulfonyl-4-methyl)phenyl-5-fluoro-2,4-pyrimidinediamine], the 50% inhibitory concentration (IC50) was found to be 6160 nM.

Take `Cc1cc(Nc2nc(Nc3cccc(S(N)(=O)=O)c3)ncc2F)ccc1OCC(N)=O` [Compound I-92, N4-(4-Aminocarbonylmethoxy-3-methyl)phenyl-N2-(3-aminosulfonyl)phenyl-5-fluoro-2,4-pyrimidinediamine]: the IC50 came to 15600 nM.

For the compound `Cc1cc(Nc2nc(Nc3cccc(S(N)(=O)=O)c3)ncc2F)cc(C)c1OCC(N)=O` [Compound I-93, N4-(4-Aminocarbonylmethoxy-3,5-dimethyl)phenyl-N2-(3-aminosulfonyl)phenyl-5-fluoro-2,4-pyrimidinediamine], the half-inhibitory concentration (IC50) worked out at 11100 nM.

In the case of `Cc1ccc(Nc2ncc(F)c(Nc3ccc(OCC(N)=O)cc3)n2)cc1S(N)(=O)=O` [Compound I-94, N4-(4-Aminocarbonylmethoxy)phenyl-N2-(3-aminosulfonyl-4-methyl)phenyl-5-fluoro-2,4-pyrimidinediamine], the IC50 was 5670 nM.

As for `Cc1cc(Nc2nc(Nc3ccc(C)c(S(N)(=O)=O)c3)ncc2F)ccc1OCC(N)=O` [Compound I-95, N4-(4-Aminocarbonylmethoxy-3-methyl)phenyl-N2-(3-aminosulfonyl-4-methyl)phenyl-5-fluoro-2,4-pyrimidinediamine], the IC50 was 6300 nM.

In the case of `CNS(=O)(=O)c1cc(Nc2ncc(F)c(Nc3ccc(Cc4ccncc4)cc3)n2)ccc1C` [III-75, 5-Fluoro-N2-[3-(N-methylaminosulfony)-4-methylphenyl]-5-fluoro-N4-[4-(4-pyridinylmethyl)phenyl]-2,4-pyrimidinediamine], the IC50 stood at 1770 nM.

Turning to `CNS(=O)(=O)c1cc(Nc2ncc(F)c(NCCc3ccc(-c4ccncc4)cc3)n2)ccc1C` [III-78, 5-Fluoro-N2-[3-N-(methyl)aminosulfonyl-4-methylphenyl]-N4-[4-(4-pyridinyl)phenethyl]-2,4-pyrimidinediamine], the IC50 turned out to be 22900 nM.

As for `NS(=O)(=O)c1cccc(Nc2ncc(F)c(Nc3ccc(Cn4ccnc4)cc3)n2)c1` [III-81, N2-(3-Aminosulfonylphenyl)-5-fluoro-N4-[4-(1-imidazolylmethyl)phenyl]-2,4-pyrimidinediamine], the 50% inhibitory concentration (IC50) was found to be 3430 nM.

For `Cc1ccc(Nc2ncc(F)c(Nc3ccc(Cn4ccnc4)cc3)n2)cc1S(N)(=O)=O` [III-82, N2-(3-Aminosulfonyl-4-methylphenyl)-5-fluoro-N4-[4-(1-imidazolylmethyl)phenyl]-2,4-pyrimidinediamine], the half-maximal inhibitory concentration (IC50) was found to be 2270 nM.

With `CNS(=O)(=O)c1cc(Nc2ncc(F)c(Nc3ccc(Cn4ccnc4)cc3)n2)ccc1C` [III-83, 5-Fluoro-N2-[3-(N-methylaminosulfony)-4-methylphenyl]-5-fluoro-N4-[4-(1-imidazolylmethyl)phenyl]-2,4-pyrimidinediamine], the IC50 is 1360 nM.

The assay is the same for the next values; noted with them: U937 cells stimulated with IFNγ; ICAM-1 expression by FACS; sodium Salt; read-out: IC50, Example 44.
With `CCC(=O)NS(=O)(=O)c1cccc(Nc2ncc(F)c(Nc3ccc(OCc4nc(C)no4)cc3)n2)c1` [Compound I-273], the IC50 was 5100 nM.
